Laboratory results published in publication PMC11859928, “Design, Synthesis, and Antiproliferative Activity of Novel Indole/1,2,4-Triazole Hybrids as Tubulin Polymerization Inhibitors” (Pharmaceuticals, 2025).

Tests used:
Experiment in all cases: NCI one-dose assay
Assay type in all cases: cell-based
[1] = test system: K-562; details: Homo sapiens, K562, K-562, Leukemia, read-out: Cell growth inhibition %
[2] = test system: UACC-257; details: Homo sapiens, UACC-257, Melanoma, read-out: Cell growth inhibition %
[3] = test system: KM12; details: Homo sapiens, KM12, Colon cancer, read-out: Cell growth inhibition %
[4] = test system: SW-620; details: Homo sapiens, SW-620, Colon cancer, read-out: Cell growth inhibition %
[5] = test system: SK-MEL-2; details: Homo sapiens, SK-MEL-2, Melanoma, read-out: Cell growth inhibition %
[6] = test system: NCI-H322M; details: Homo sapiens, Non-small cell lung cancer, read-out: Cell growth inhibition %
[7] = test system: SF-295; details: Homo sapiens, SF-295, CNS cancer, read-out: Cell growth inhibition %
[8] = test system: SR; details: Homo sapiens, Leukemia, read-out: Cell growth inhibition %
[9] = test system: SNB-19; details: Homo sapiens, SNB-19, CNS cancer, read-out: Cell growth inhibition %
[10] = test system: M14; details: Homo sapiens, M14, Melanoma, read-out: Cell growth inhibition %
[11] = test system: HS 578 T; details: Homo sapiens, Breast cancer, read-out: Cell growth inhibition %
[12] = test system: A549/ATCC; details: Homo sapiens, Non-small cell lung cancer, read-out: Cell growth inhibition %
[13] = test system: CCRF-CEM; details: Homo sapiens, Leukemia, read-out: Cell growth inhibition %
[14] = test system: MOLT-4; details: Homo sapiens, MOLT-4, Leukemia, read-out: Cell growth inhibition %
[15] = test system: BT-549; details: Homo sapiens, BT-549, Breast cancer, read-out: Cell growth inhibition %
[16] = test system: HT29; details: Homo sapiens, HT-29, HT29, Colon cancer, read-out: Cell growth inhibition %
[17] = test system: MCF7; details: Homo sapiens, MCF7, Breast cancer, read-out: Cell growth inhibition %
[18] = test system: HCC-2998; details: Homo sapiens, HCC-2998, Colon cancer, read-out: Cell growth inhibition %
[19] = test system: ACHN; details: Homo sapiens, Renal cancer, read-out: Cell growth inhibition %
[20] = test system: EKVX; details: Homo sapiens, Non-small cell lung cancer, read-out: Cell growth inhibition %
[21] = test system: HL-60(TB); details: Homo sapiens, Leukemia, read-out: Cell growth inhibition %
[22] = test system: OVCAR-3; details: Homo sapiens, OVCAR-3, Ovarian cancer, read-out: Cell growth inhibition %
[23] = test system: MDA-MB-231/ATCC; details: Homo sapiens, Breast cancer, read-out: Cell growth inhibition %
[24] = test system: HCT-116; details: Homo sapiens, HCT-116, Colon cancer, read-out: Cell growth inhibition %
[25] = test system: SK-OV-3; details: Homo sapiens, SK-OV-3, Ovarian cancer, read-out: Cell growth inhibition %
[26] = test system: HCT-15; details: Homo sapiens, HCT-15, Colon cancer, read-out: Cell growth inhibition %
[27] = test system: CAKI-1; details: Homo sapiens, CAKI-1, Renal cancer, read-out: Cell growth inhibition %
[28] = test system: HOP-62; details: Homo sapiens, HOP-62, Non-small cell lung cancer, read-out: Cell growth inhibition %
[29] = test system: SF-268; details: Homo sapiens, SF-268, CNS cancer, read-out: Cell growth inhibition %
[30] = test system: OVCAR-4; details: Homo sapiens, OVCAR-4, Ovarian cancer, read-out: Cell growth inhibition %
[31] = test system: NCI-H522; details: Homo sapiens, NCI-H522, Non-small cell lung cancer, read-out: Cell growth inhibition %
[32] = test system: MDA-MB-468; details: Homo sapiens, MDA-MB-468, Breast cancer, read-out: Cell growth inhibition %
[33] = test system: DU-145; details: Homo sapiens, DU-145, Prostate cancer, read-out: Cell growth inhibition %
[34] = test system: COLO 205; details: Homo sapiens, COLO 205, Colon cancer, read-out: Cell growth inhibition %
[35] = test system: SN12C; details: Homo sapiens, Renal cancer, read-out: Cell growth inhibition %
[36] = test system: T-47D; details: Homo sapiens, T47D, Breast cancer, read-out: Cell growth inhibition %
[37] = test system: SK-MEL-28; details: Homo sapiens, SK-MEL-28, Melanoma, read-out: Cell growth inhibition %

SMILES	inhibition at 10 µM [1] [%]	inhibition at 10 µM [2] [%]	inhibition at 10 µM [3] [%]	inhibition at 10 µM [4] [%]	inhibition at 10 µM [5] [%]	inhibition at 10 µM [6] [%]	inhibition at 10 µM [7] [%]	inhibition at 10 µM [8] [%]	inhibition at 10 µM [9] [%]	inhibition at 10 µM [10] [%]	inhibition at 10 µM [11] [%]	inhibition at 10 µM [12] [%]	inhibition at 10 µM [13] [%]	inhibition at 10 µM [14] [%]	inhibition at 10 µM [15] [%]	inhibition at 10 µM [16] [%]	inhibition at 10 µM [17] [%]	inhibition at 10 µM [18] [%]	inhibition at 10 µM [19] [%]	inhibition at 10 µM [20] [%]	other results
C=CCn1c(SCC(=O)c2ccc(OC)cc2)nnc1-c1c[nH]c2ccccc12 [Compound 6b, 2-((4-Allyl-5-(1H-indol-3-yl)-4H-1,2,4-triazol-3-yl)thio)-1-(4-methoxyphenyl) Ethenone]	8.14	-2.78	-4.63	0.51	-33.2	2.42	2.91	18.5	-1.42	-1.55	0.85	-8.47	8.66	6.64	-1.84	-12.7	5.93	-3.48	8.68	3.03	inhibition at 10 µM [21]: 8.98%; inhibition at 10 µM [22]: -16.9%; inhibition at 10 µM [23]: 11.1%; inhibition at 10 µM [24]: 5.43%; inhibition at 10 µM [25]: -30.5%; inhibition at 10 µM [26]: 2.44%; inhibition at 10 µM [27]: 7.83%; inhibition at 10 µM [28]: 6.07%; inhibition at 10 µM [29]: -8.99%; inhibition at 10 µM [30]: -4.81%; inhibition at 10 µM [31]: 0.49%; inhibition at 10 µM [32]: 5.01%; inhibition at 10 µM [33]: -11.8%; inhibition at 10 µM [34]: 2.83%; inhibition at 10 µM [35]: 3.73%; inhibition at 10 µM [36]: 11.1%; inhibition at 10 µM [37]: 1.56%
C=CCn1c(SCC(=O)c2ccc(Cl)cc2)nnc1-c1c[nH]c2ccccc12 [Compound 6e, 2-((4-Allyl-5-(1H-indol-3-yl)-4H-1,2,4-triazol-3-yl)thio)-1-(4-chlorophenyl)ethenone]	10.1	2.2	-3.89	-2.66	-17.1	-2.47	3.57	12.2	0.6	6.76	-3.65	3.63	2.28	10.6	-0.26	-7.4	7.08	-15.6	7.39	8.21	inhibition at 10 µM [21]: 10.8%; inhibition at 10 µM [22]: -12.2%; inhibition at 10 µM [23]: 8.19%; inhibition at 10 µM [24]: 6.8%; inhibition at 10 µM [25]: -20.6%; inhibition at 10 µM [26]: 6.28%; inhibition at 10 µM [27]: 7.04%; inhibition at 10 µM [28]: 4.08%; inhibition at 10 µM [29]: -4.81%; inhibition at 10 µM [30]: -8%; inhibition at 10 µM [31]: 7.55%; inhibition at 10 µM [32]: 8%; inhibition at 10 µM [33]: -14.4%; inhibition at 10 µM [34]: -11.1%; inhibition at 10 µM [35]: 4.38%; inhibition at 10 µM [36]: 3.25%; inhibition at 10 µM [37]: -10.1%
Cc1ccc(/C(CSc2nnc(-c3c[nH]c4ccccc34)n2-c2ccccc2)=N/O)cc1 [Compound 7h, (Z)-2-((5-(1H-Indol-3-yl)-4-phenyl-4H-1,2,4-triazol-3-yl)thio)-1-(p-tolyl)ethanone Oxime]	98.4	64.3	49.8	180	37.3	142	150	90.2	119	164	154	81.6	135	128	176	93.7	155	142	162	71.8	inhibition at 10 µM [21]: 114%; inhibition at 10 µM [22]: 85.3%; inhibition at 10 µM [23]: 182%; inhibition at 10 µM [24]: 97.4%; inhibition at 10 µM [25]: 88.5%; inhibition at 10 µM [26]: 162%; inhibition at 10 µM [27]: 127%; inhibition at 10 µM [28]: 157%; inhibition at 10 µM [29]: 160%; inhibition at 10 µM [30]: 187%; inhibition at 10 µM [31]: 76.2%; inhibition at 10 µM [32]: 189%; inhibition at 10 µM [33]: 160%; inhibition at 10 µM [34]: 87.6%; inhibition at 10 µM [35]: 137%; inhibition at 10 µM [36]: 147%; inhibition at 10 µM [37]: 37.5%
C=CCn1c(SCC(=O)c2ccc(C)cc2)nnc1-c1c[nH]c2ccccc12 [Compound 6c, 2-((4-allyl-5-(1H-indol-3-yl)-4H-1,2,4-triazol-3-yl)thio)-1-(p-tolyl)ethanone]	12.8	6.7	-6.02	-0.34	1.54	0.83	3.28	8.97	3.56	4.78	-2.83	5.97	9.66	9.13	2.35	-6.98	9.88	-7.01	11	8.94	inhibition at 10 µM [21]: 10.4%; inhibition at 10 µM [22]: -13.1%; inhibition at 10 µM [23]: 11.5%; inhibition at 10 µM [24]: 9.79%; inhibition at 10 µM [25]: -22.4%; inhibition at 10 µM [26]: 6.36%; inhibition at 10 µM [27]: 15.1%; inhibition at 10 µM [28]: 9.23%; inhibition at 10 µM [29]: -3.82%; inhibition at 10 µM [30]: -10.4%; inhibition at 10 µM [31]: 4.55%; inhibition at 10 µM [32]: 12.5%; inhibition at 10 µM [33]: -8.9%; inhibition at 10 µM [34]: -25.9%; inhibition at 10 µM [35]: 5.47%; inhibition at 10 µM [36]: 9.92%; inhibition at 10 µM [37]: -4.91%
